Test results as given in patent US8058242B2, “Chimeric proteins with natriuretic activity” (The University of Queensland, priority 2004, dated 2011).
Positions of bridges follow the written chain, without caps; N, C: chain ends. Non-standard residues stand in square brackets, D forms with d. Residues, ends and D or L forms follow the SMILES beside them. Nle = CCCC[C@H](N)C(=O)O

What was measured:
[1] = target: T1, Natriuretic Peptide Receptor-A (NPR-A) signaling in MDCK cells (Canis lupus familiaris, UniProt A0A8I3MHU3); assay type: cell-based, canine; settings: stimulation of cGMP accumulation in MDCK cells; for EC50: read-out: EC50 (M) ± Standard Error
T1 sequence (A0A8I3MHU3 32-1060): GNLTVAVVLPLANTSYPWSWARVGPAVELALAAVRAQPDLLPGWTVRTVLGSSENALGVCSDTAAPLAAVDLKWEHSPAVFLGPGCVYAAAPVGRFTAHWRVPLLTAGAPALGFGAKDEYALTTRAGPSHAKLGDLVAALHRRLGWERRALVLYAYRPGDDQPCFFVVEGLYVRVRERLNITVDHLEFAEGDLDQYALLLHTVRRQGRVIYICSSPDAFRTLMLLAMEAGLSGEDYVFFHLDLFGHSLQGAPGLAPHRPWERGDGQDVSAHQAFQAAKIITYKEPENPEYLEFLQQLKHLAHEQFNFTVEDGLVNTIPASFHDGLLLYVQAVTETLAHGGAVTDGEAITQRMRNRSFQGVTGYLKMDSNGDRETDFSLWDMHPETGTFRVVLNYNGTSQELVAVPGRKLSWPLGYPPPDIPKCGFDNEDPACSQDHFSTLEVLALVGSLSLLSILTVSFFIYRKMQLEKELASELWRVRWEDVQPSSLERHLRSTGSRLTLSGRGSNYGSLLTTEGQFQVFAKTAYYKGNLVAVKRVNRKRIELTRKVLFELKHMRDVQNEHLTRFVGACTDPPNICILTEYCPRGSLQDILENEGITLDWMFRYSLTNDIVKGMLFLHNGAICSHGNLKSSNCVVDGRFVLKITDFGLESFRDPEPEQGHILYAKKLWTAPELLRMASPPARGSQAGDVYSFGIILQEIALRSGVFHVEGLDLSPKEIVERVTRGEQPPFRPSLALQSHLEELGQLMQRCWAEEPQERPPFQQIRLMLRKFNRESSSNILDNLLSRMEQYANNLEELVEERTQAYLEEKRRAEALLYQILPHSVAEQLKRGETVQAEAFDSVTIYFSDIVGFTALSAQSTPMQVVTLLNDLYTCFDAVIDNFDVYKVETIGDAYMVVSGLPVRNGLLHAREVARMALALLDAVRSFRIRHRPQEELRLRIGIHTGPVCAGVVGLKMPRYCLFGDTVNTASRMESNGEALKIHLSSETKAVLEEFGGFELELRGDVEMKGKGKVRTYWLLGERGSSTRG

conscious rabbits = test: Blood pressure and heart rate in conscious rabbits, intravenous infusion dose-response (Example 8)
[2] = after 1 hour recovery period, Table 10A

CC[C@H](C)[C@@H]1NC(=O)[C@H](CCCNC(=N)N)NC(=O)[C@H](CC(=O)O)NC(=O)[C@H]([C@@H](C)CC)NC(=O)[C@H](CCCCN)NC(=O)[C@H](Cc2c[nH]cn2)NC(=O)CNC(=O)[C@H](Cc2ccccc2)NC(=O)[C@@H](NC(=O)CNC(=O)[C@H](CC(N)=O)NC(=O)[C@@H]2CCCN2C(=O)[C@@H]2CCCN2C(=O)CNC(=O)[C@H](CCCCN)NC(=O)[C@H](CCCCN)NC(=O)[C@@H]2CCCN2C(=O)[C@@H]2CCCN2C(=O)[C@H](CCCCN)NC(=O)[C@H](CC(N)=O)NC(=O)[C@H](CC(=O)O)NC(=O)CN)CSSC[C@@H](C(=O)N[C@@H](CC(N)=O)C(=O)N[C@@H](CCCCN)C(=O)N[C@H](C(=O)N[C@@H](CC(=O)O)C(=O)N[C@@H](CC(=O)O)C(=O)N[C@@H](CC(N)=O)C(=O)N[C@@H](CCCCN)C(=O)NCC(=O)O)C(C)C)NC(=O)CNC(=O)[C@H](CC(C)C)NC(=O)CNC(=O)[C@H](CO)NC(=O)[C@H](Cc2c[nH]cn2)NC(=O)[C@H](CO)NC(=O)CNC1=O [Lebetin] (H-GDNKPPKKGPPNGCFGHKIDRIGSHSGLGCNKVDDNKG-OH; disulfide 14-30; N-terminus and C-terminus assumed)
−Log10 EC50 (pEC50) ± Standard Error [1]: 7.637 ± 0.1619
EC50 [1]: 2.67e-08 M

CCCC[C@H](NC(=O)[C@@H](NC(=O)[C@H](CCCNC(=N)N)NC(=O)[C@H](CC(N)=O)NC(=O)[C@@H]1CSSC[C@H](NC(=O)CNC(=O)[C@H](CC(N)=O)NC(=O)CNC(=O)[C@@H](NC(=O)[C@H](CCCCN)NC(=O)[C@H](CO)NC(=O)[C@H](CC(=O)O)NC(=O)[C@@H](N)CO)[C@@H](C)CC)C(=O)N[C@@H](Cc2ccccc2)C(=O)NCC(=O)N[C@@H](Cc2ccccc2)C(=O)N2CCC[C@H]2C(=O)N[C@@H](CC(C)C)C(=O)N[C@@H](CC(=O)O)C(=O)N[C@@H](CCCNC(=N)N)C(=O)N[C@@H]([C@@H](C)CC)C(=O)NCC(=O)N[C@@H](CO)C(=O)N[C@@H](C(C)C)C(=O)N[C@@H](CO)C(=O)NCC(=O)N[C@@H](CC(C)C)C(=O)NCC(=O)N1)[C@@H](C)CC)C(=O)N[C@@H](CCC(N)=O)C(=O)N[C@@H](CC(N)=O)C(=O)N1CCC[C@H]1C(=O)N1CCC[C@H]1C(=O)N[C@@H](CCCCN)C(=O)N[C@@H](CCCCN)C(=O)N[C@@H](Cc1ccccc1)C(=O)N[C@@H](CO)C(=O)NCC(=O)N[C@@H](CCC(=O)O)C(=O)O [Nle-TNPc] (H-SDSKIGNGCFGFPLDRIGSVSGLGCNRI[Nle]QNPPKKFSGE-OH; disulfide 9-25; N-terminus assumed)
−Log10 EC50 (pEC50) ± Standard Error [1]: 6.497 ± 0.2017
EC50 [1]: 3.99e-07 M

CC[C@H](C)[C@@H]1NC(=O)[C@H](CCCNC(=N)N)NC(=O)[C@H](CC(=O)O)NC(=O)[C@H]([C@@H](C)CC)NC(=O)[C@H](CCCCN)NC(=O)[C@H](Cc2c[nH]cn2)NC(=O)CNC(=O)[C@H](Cc2ccccc2)NC(=O)[C@@H](NC(=O)CNC(=O)[C@H](CC(=O)O)NC(=O)[C@@H]2CCCN2C(=O)[C@H](C)NC(=O)[C@H](CCCCN)NC(=O)[C@H](CCCCN)NC(=O)[C@H](CCCCN)NC(=O)[C@@H]2CCCN2C(=O)[C@@H]2CCCN2C(=O)[C@H](CCC(=O)O)NC(=O)[C@H](CC(N)=O)NC(=O)[C@H](CCC(=O)O)NC(=O)CN)CSSC[C@@H](C(=O)N[C@@H](CC(N)=O)C(=O)N[C@@H](CCCCN)C(=O)N[C@@H](Cc2ccccc2)C(=O)N[C@@H](CCCCN)C(=O)N2CCC[C@H]2C(=O)NCC(=O)N[C@@H](Cc2c[nH]cn2)C(=O)O)NC(=O)CNC(=O)[C@H](CC(C)C)NC(=O)CNC(=O)[C@H](CO)NC(=O)[C@H](Cc2c[nH]cn2)NC(=O)[C@H](CO)NC(=O)CNC1=O [PNP, reference compound] (H-GENEPPKKKAPDGCFGHKIDRIGSHSGLGCNKFKPGH-OH; disulfide 14-30)
−Log10 EC50 (pEC50) ± Standard Error [1]: 6.660 ± 0.4500
EC50 [1]: 3.47e-07 M

CC[C@H](C)[C@@H]1NC(=O)[C@H](CCCNC(=N)N)NC(=O)[C@H](CC(=O)O)NC(=O)[C@H](CC(C)C)NC(=O)[C@@H]2CCCN2C(=O)[C@H](Cc2ccccc2)NC(=O)CNC(=O)[C@H](Cc2ccccc2)NC(=O)[C@@H](NC(=O)CNC(=O)[C@H](C)NC(=O)[C@H](CO)NC(=O)[C@@H](NC(=O)[C@H](CCCCN)NC(=O)[C@H](CO)NC(=O)[C@H](CC(=O)O)NC(=O)[C@@H](N)CO)[C@@H](C)CC)CSSC[C@@H](C(=O)N[C@@H](CC(N)=O)C(=O)N[C@@H](CCCNC(=N)N)C(=O)N[C@H](C(=O)N[C@@H](CCSC)C(=O)N[C@@H](CCC(N)=O)C(=O)N[C@@H](CC(N)=O)C(=O)N2CCC[C@H]2C(=O)N2CCC[C@H]2C(=O)N[C@@H](CCCCN)C(=O)N[C@@H](CCCCN)C(=O)N[C@@H](Cc2ccccc2)C(=O)N[C@@H](CO)C(=O)NCC(=O)N[C@@H](CCC(=O)O)C(=O)O)[C@@H](C)CC)NC(=O)CNC(=O)[C@H](CC(C)C)NC(=O)CNC(=O)[C@H](CO)NC(=O)[C@H](C(C)C)NC(=O)[C@H](CO)NC(=O)CNC1=O [Peptide A7S6-TNPc] (H-SDSKISAGCFGFPLDRIGSVSGLGCNRIMQNPPKKFSGE-OH; disulfide 9-25; N-terminus assumed)
−Log10 EC50 (pEC50) ± Standard Error [1]: 6.897 ± 0.2652
EC50 [1]: 1.69e-07 M

CC[C@H](C)[C@H](NC(=O)[C@H](CCCCN)NC(=O)[C@H](CO)NC(=O)[C@H](CC(=O)O)NC(=O)[C@@H](N)CO)C(=O)NCC(=O)N[C@@H](CC(N)=O)C(=O)NCC(=O)N[C@H]1CSSC[C@@H](C(=O)N[C@@H](CC(N)=O)C(=O)N[C@@H](CCCNC(=N)N)C(=O)N2CCC[C@H]2C(=O)N[C@@H](CCSC)C(=O)N[C@@H](CCC(N)=O)C(=O)N[C@@H](CC(N)=O)C(=O)N2CCC[C@H]2C(=O)N2CCC[C@H]2C(=O)N[C@@H](CCCCN)C(=O)N[C@@H](CCCCN)C(=O)N[C@@H](Cc2ccccc2)C(=O)N[C@@H](CO)C(=O)NCC(=O)N[C@@H](CCC(=O)O)C(=O)O)NC(=O)CNC(=O)[C@H](CC(C)C)NC(=O)CNC(=O)[C@H](CO)NC(=O)[C@H](C(C)C)NC(=O)[C@H](CO)NC(=O)CNC(=O)[C@H]([C@@H](C)CC)NC(=O)[C@H](CCCNC(=N)N)NC(=O)[C@H](CC(=O)O)NC(=O)[C@H](CC(C)C)NC(=O)[C@@H]2CCCN2C(=O)[C@H](Cc2ccccc2)NC(=O)CNC(=O)[C@H](Cc2ccccc2)NC1=O [Peptide I28P-TNPc] (H-SDSKIGNGCFGFPLDRIGSVSGLGCNRPMQNPPKKFSGE-OH; disulfide 9-25; N-terminus assumed)
−Log10 EC50 (pEC50) ± Standard Error [1]: 5.995 ± 0.2450
EC50 [1]: 1.19e-06 M

CC[C@H](C)[C@@H]1NC(=O)[C@H](CCCNC(=N)N)NC(=O)[C@H](CC(=O)O)NC(=O)[C@H](CC(C)C)NC(=O)[C@@H]2CCCN2C(=O)[C@H](Cc2ccccc2)NC(=O)CNC(=O)[C@H](Cc2ccccc2)NC(=O)[C@@H](NC(=O)CNC(=O)[C@H](CCCCN)NC(=O)[C@H](CO)NC(=O)[C@@H](NC(=O)[C@H](CCCCN)NC(=O)[C@H](CO)NC(=O)[C@H](CC(=O)O)NC(=O)[C@@H](N)CO)[C@@H](C)CC)CSSC[C@@H](C(=O)N[C@@H](CC(N)=O)C(=O)N[C@@H](CCCNC(=N)N)C(=O)N[C@H](C(=O)N[C@@H](CCSC)C(=O)N[C@@H](CCC(N)=O)C(=O)N[C@@H](CC(N)=O)C(=O)N2CCC[C@H]2C(=O)N2CCC[C@H]2C(=O)N[C@@H](CCCCN)C(=O)N[C@@H](CCCCN)C(=O)N[C@@H](Cc2ccccc2)C(=O)N[C@@H](CO)C(=O)NCC(=O)N[C@@H](CCC(=O)O)C(=O)O)[C@@H](C)CC)NC(=O)CNC(=O)[C@H](CC(C)C)NC(=O)CNC(=O)[C@H](CO)NC(=O)[C@H](C(C)C)NC(=O)[C@H](CO)NC(=O)CNC1=O [Peptide K7S6-TNPc] (H-SDSKISKGCFGFPLDRIGSVSGLGCNRIMQNPPKKFSGE-OH; disulfide 9-25; N-terminus assumed)
−Log10 EC50 (pEC50) ± Standard Error [1]: 7.567 ± 0.4397
EC50 [1]: 5.24e-08 M

SDSKIGNGCFGFPLDHIGSVSGLGCNRIMQNPPKKFSGE (A portion of a natriuretic peptide) [TNPc R16H]
Recovery (MAP) (conscious rabbits; [2]): 67.6 mm Hg
Recovery Delta SED (MAP) (conscious rabbits; [2]): 2.0 ± 3.9 mm Hg
reduction of MAP compared to vehicle, in words (conscious rabbits; highest dose): did significantly reduce MAP
MAP at final dose (conscious rabbits; highest dose, Table 10A): 65.6 mm Hg
Treatment Effect, change of mean blood pressure during the infusion (conscious rabbits; highest dose, Table 10A, groups 1, 2A and 3): −7.3 mm Hg
